Experimental data taken from US20180201592A1, “2-AMINO-1,3,4-THIADIAZINE AND 2-AMINO-1,3,4-OXADIAZINE BASED ANTIFUNGAL AGENTS” (F2G Limited, priority 2015, published 2018).

What was measured:
Conditions in all cases: banded MIC grade
A. terreus 49 [1] = experiment: Minimum inhibitory concentration, YAG medium; format: cell-based, Aspergillus terreus
Outline: (§1)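 Compound from a 5 mg/mL DMSO stock was further diluted in sterile water, then serially doubled in water and plated with Aspergillus spp. spores. After 24 hrs at 35° C, growth was monitored by optical density at 485 nm; MICs are given in mg/L.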

C. krusei = experiment: Minimum inhibitory concentration, RPMI medium; format: cell-based
Outline: (§2)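 Compound stock was made at 5 mg/mL in DMSO, diluted in sterile water and serially doubled in water, then tested in RPMI 1640 medium. Plates were incubated 24-48 hrs at 35° C, and growth was scored as optical density at 485 nm.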

A. terreus 49 [2] = experiment: Minimum inhibitory concentration, RPMI medium; format: cell-based
Outline: as §2

C. tropicalis = experiment: Minimum inhibitory concentration, RPMI medium; format: cell-based
Outline: as §2

C. albicans = experiment: Minimum inhibitory concentration, RPMI medium; format: cell-based
Outline: as §2

A. flavus = experiment: Minimum inhibitory concentration, RPMI medium; format: cell-based
Outline: as §2

A. niger = experiment: Minimum inhibitory concentration, RPMI medium; format: cell-based
Outline: as §2

A. terreus = experiment: Minimum inhibitory concentration, RPMI medium; format: cell-based
Outline: as §2

C. parapsilosis = experiment: Minimum inhibitory concentration, RPMI medium; format: cell-based
Outline: as §2

C. glabrata = experiment: Minimum inhibitory concentration, RPMI medium; format: cell-based
Outline: as §2

Aspergillus terreus = experiment: Minimum inhibitory concentration, YAG medium; format: cell-based
Outline: as §1

Aspergillus flavus = experiment: Minimum inhibitory concentration, YAG medium; format: cell-based
Outline: as §1

Aspergillus niger = experiment: Minimum inhibitory concentration, YAG medium; format: cell-based
Outline: as §1

A. fumigatus 210 [3] = experiment: Minimum inhibitory concentration, YAG medium; format: cell-based, Aspergillus fumigatus
Outline: (§3)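 Growth was read as optical density at 485 nm after 24 hrs at 35° C, and the MIC taken as the lowest drug concentration cutting growth by >70% relative to drug-free wells. Plates held doubling dilutions (50-0.05 mg/L) with 1-2×10^4 cfu/mL spores in YAG medium.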

Aspergillus fumigatus = experiment: Minimum inhibitory concentration, YAG medium; format: cell-based
Outline: as §3

A. fumigatus 210 [4] = experiment: Minimum inhibitory concentration, RPMI medium; format: cell-based
Procedure: (§4) Between 1 and 5 mgs of compound were accurately weighed out into a sterile Eppendorf tube. The compound was dissolved in DMSO to give a solution containing 5 mg/mL. Tubes were stored at −20° C. until required.
(§5) On the day of testing thawed solutions were vortex mixed to ensure homogeneity. 30 μL of solution was removed and added to 570 μL of sterile water in a separate sterile Eppendorf. The thoroughly mixed solution was used to prepare a series of doubling dilutions in water, in a deep well plate. Thirteen replicate plates were prepared using a Minitrak by aspirating 20 μL from each well into eleven clear polystyrene 96 well plates.
(§6) Assays were also performed in RPMI medium (Roswell Park Memorial Media 1640). To perform MIC tests in this medium, dilutions of compounds are prepared in microtitre plates as described above. Fungal strains to be tested are grown and harvested in an identical manner to that described above, and each organism suspension was diluted in RPMI medium, typically containing 2% glucose and 0.135 M MOPS buffer (pH 7.0) to 0.5-2×10^4cfu/mL, rather than in YAG medium. 80 μL of an organism suspension was added to each well of the plate containing drug dilutions.
(§7) This produced MIC plates with a drug range 50-0.05 mg/L and organism inocula of 1-2×10^4 cfu/mL. All plates were incubated for 24-48 hrs at 35° C. Growth was assessed by monitoring the optical density at 485 nm for each well. The MIC of a compound is the lowest drug concentration that inhibits growth of an organism by >80% compared with a drug free control. The following organisms were tested: C. albicans, C. parapsilosis, C. tropicalis, C. glabrata, C. krusei, A. niger, A. fumigatus, A. terreus, A. flavus, A. terreus 49, and A. fumigatus 210.

A. fumigatus = experiment: Minimum inhibitory concentration, RPMI medium; format: cell-based
Procedure: as §4, §5, §6, §7

| SMILES | MIC grade, A. TERREUS 49, YAG media (A. terreus 49 [1]) | MIC grade, C. KRUSEI, RPMI media (C. krusei) | MIC grade, A. TERREUS 49, RPMI media (A. terreus 49 [2]) | MIC grade, C. TROPICALIS, RPMI media (C. tropicalis) | MIC grade, C. ALBICANS, RPMI media (C. albicans) | MIC grade, A. FLAVUS, RPMI media (A. flavus) | MIC grade, A. NIGER, RPMI media (A. niger) | MIC grade, A. TERREUS, RPMI media (A. terreus) | MIC grade, C. PARAPSILOSIS, RPMI media (C. parapsilosis) | MIC grade, C. GLABRATA, RPMI media (C. glabrata) | MIC grade, A. TERREUS, YAG media (Aspergillus terreus) | MIC grade, A. FLAVUS, YAG media (Aspergillus flavus) | MIC grade, A. NIGER, YAG media (Aspergillus niger) | MIC grade, A. FUMIGATUS 210, YAG media (A. fumigatus 210 [3]) | MIC grade, A. FUMIGATUS, YAG media (Aspergillus fumigatus) | MIC grade, A. FUMIGATUS 210, RPMI media (A. fumigatus 210 [4]) | MIC grade, A. FUMIGATUS, RPMI media (A. fumigatus) |
| --- | --- | --- | --- | --- | --- | --- | --- | --- | --- | --- | --- | --- | --- | --- | --- | --- | --- |
| CCc1ccc(OCCCCC2=NN=C(N)SC2)cc1 | 4 (4: <0.2 mg/L) | 4 (4: <1 mg/L) | 2 (2: 5-20 mg/L) | 4 (4: <1 mg/L) | 4 (4: <1 mg/L) | 2 (2: 5-20 mg/L) | 2 (2: 5-20 mg/L) | 3 (3: 1-5 mg/L) | 4 (4: <1 mg/L) | 2 (2: 5-20 mg/L) | 4 (4: <0.2 mg/L) | 4 (4: <0.2 mg/L) | 3 (3: 0.2-1 mg/L) | 3 (3: 0.2-1 mg/L) | 3 (3: 0.2-1 mg/L) | 2 (2: 5-20 mg/L) | 2 (2: 5-20 mg/L) |
| NC1=NN=C(CCCCOCc2ccc(F)cc2F)CS1 | 4 (4: <0.2 mg/L) | 4 (4: <1 mg/L) | 4 (4: <1 mg/L) | 4 (4: <1 mg/L) | 4 (4: <1 mg/L) | 4 (4: <1 mg/L) | 4 (4: <1 mg/L) | 4 (4: <1 mg/L) | 4 (4: <1 mg/L) | 4 (4: <1 mg/L) | 4 (4: <0.2 mg/L) | 4 (4: <0.2 mg/L) | 4 (4: <0.2 mg/L) | 4 (4: <0.2 mg/L) | 4 (4: <0.2 mg/L) | 3 (3: 1-5 mg/L) | 4 (4: <1 mg/L) |
| CCCCc1cccc(COCCCCC2=NN=C(N)SC2)c1 | 2 (2: 1-5 mg/L) | 2 (2: 5-20 mg/L) | 2 (2: 5-20 mg/L) | 2 (2: 5-20 mg/L) | 2 (2: 5-20 mg/L) | 2 (2: 5-20 mg/L) | 2 (2: 5-20 mg/L) | 2 (2: 5-20 mg/L) | 2 (2: 5-20 mg/L) | 1 (1: ≥20 mg/L) | 2 (2: 1-5 mg/L) | 3 (3: 0.2-1 mg/L) | 3 (3: 0.2-1 mg/L) | 1 (1: ≥5 mg/L) | 1 (1: ≥5 mg/L) | 1 (1: ≥20 mg/L) | 2 (2: 5-20 mg/L) |
| NC1=NN=C(CCCCOCc2ccc(C(F)(F)F)cc2)CS1 | 4 (4: <0.2 mg/L) | 4 (4: <1 mg/L) | 2 (2: 5-20 mg/L) | 4 (4: <1 mg/L) | 4 (4: <1 mg/L) | 3 (3: 1-5 mg/L) | 3 (3: 1-5 mg/L) | 3 (3: 1-5 mg/L) | 4 (4: <1 mg/L) | 2 (2: 5-20 mg/L) | 4 (4: <0.2 mg/L) | 4 (4: <0.2 mg/L) | 4 (4: <0.2 mg/L) | 4 (4: <0.2 mg/L) | 4 (4: <0.2 mg/L) | 2 (2: 5-20 mg/L) | 2 (2: 5-20 mg/L) |
| NC1=NN=C(CCCCOCc2cc(F)cc(F)c2)CS1 | 4 (4: <0.2 mg/L) | 4 (4: <1 mg/L) | 3 (3: 1-5 mg/L) | 4 (4: <1 mg/L) | 4 (4: <1 mg/L) | 3 (3: 1-5 mg/L) | 3 (3: 1-5 mg/L) | 3 (3: 1-5 mg/L) | 4 (4: <1 mg/L) | 3 (3: 1-5 mg/L) | 4 (4: <0.2 mg/L) | 4 (4: <0.2 mg/L) | 4 (4: <0.2 mg/L) | 4 (4: <0.2 mg/L) | 4 (4: <0.2 mg/L) | 2 (2: 5-20 mg/L) | 4 (4: <1 mg/L) |
| NC1=NN=C(CCCCOCc2cc(F)ccc2F)CS1 | 4 (4: <0.2 mg/L) | 3 (3: 1-5 mg/L) | 2 (2: 5-20 mg/L) | 3 (3: 1-5 mg/L) | 3 (3: 1-5 mg/L) | 2 (2: 5-20 mg/L) | 2 (2: 5-20 mg/L) | 2 (2: 5-20 mg/L) | 3 (3: 1-5 mg/L) | 2 (2: 5-20 mg/L) | 4 (4: <0.2 mg/L) | 4 (4: <0.2 mg/L) | 4 (4: <0.2 mg/L) | 4 (4: <0.2 mg/L) | 4 (4: <0.2 mg/L) | 2 (2: 5-20 mg/L) | 2 (2: 5-20 mg/L) |
| CCc1cccc(COCCCCC2=NN=C(N)SC2)c1 | 4 (4: <0.2 mg/L) | 4 (4: <1 mg/L) | 2 (2: 5-20 mg/L) | 4 (4: <1 mg/L) | 4 (4: <1 mg/L) | 3 (3: 1-5 mg/L) | 2 (2: 5-20 mg/L) | 2 (2: 5-20 mg/L) | 4 (4: <1 mg/L) | 2 (2: 5-20 mg/L) | 4 (4: <0.2 mg/L) | 4 (4: <0.2 mg/L) | 4 (4: <0.2 mg/L) | 3 (3: 0.2-1 mg/L) | 4 (4: <0.2 mg/L) | 2 (2: 5-20 mg/L) | 2 (2: 5-20 mg/L) |
| NC1=NN=C(CCCCOCc2ccccc2C2CC2)CS1 | 2 (2: 1-5 mg/L) | 2 (2: 5-20 mg/L) | 2 (2: 5-20 mg/L) | 3 (3: 1-5 mg/L) | 3 (3: 1-5 mg/L) | 1 (1: ≥20 mg/L) | 1 (1: ≥20 mg/L) | 2 (2: 5-20 mg/L) | 3 (3: 1-5 mg/L) | 2 (2: 5-20 mg/L) | 2 (2: 1-5 mg/L) | 3 (3: 0.2-1 mg/L) | 2 (2: 1-5 mg/L) | 2 (2: 1-5 mg/L) | 2 (2: 1-5 mg/L) | 1 (1: ≥20 mg/L) | 2 (2: 5-20 mg/L) |
